Measurements as given in publication PMC8289861 (Scientific Reports, 2021).

Columns and labels:
Caco-2 cells [1] = details: cited from earlier work
Caco-2 cells [2] = tested on: Caco-2 cells
[3] = cited from earlier work
[4] = tested on: colon-derived human cells (NCM460 and HT-29MTX); details: cited from earlier work
[5] = cited from earlier work; remark: listed apart in the source
[6] = design: method as in PMID 25283090; details: in vivo studies; cited from earlier work

SMILES: [Cl][Cd][Cl] [CdCl2]
- Cd taken up (retained in the cells and transferred through cells) by Caco-2 cells (Caco-2 cells [1]; Caco-2): 25%

SMILES: CC(=O)[O-].CC(=O)[O-].[Pb+2] [Pb, lead acetate]
- Pb absorbed (associated and transported by Caco-2 cells) (Caco-2 cells [1]; Caco-2): 30%
- Pb moved through the single layer (Caco-2 cells [1]): 3%
- Pb retained by the cells (Caco-2 cells [1]): approximately 27%
- reduction of ML in the basolateral chamber (Caco-2 cells [1]): 50%
- decrease in the permeability as measured by Papp (Caco-2 cells [2]): 7.9%
- decrease of Papp values (Caco-2 cells [2]): 8.2%
- absolute bioavailability ([3]; estimated from Pb concentration in blood): 2.7%
- fish meal Pb found in kidney ([3]; kidney): 1.4%
- fish meal Pb found in liver ([3]; liver): 0.9%

SMILES: CC(=O)[O-].CC(=O)[O-].[Cd+2] [Cd, cadmium acetate]
- Cd accumulated in the Caco-2 cells (Caco-2 cells [1]; Caco-2): 6-12%
- lag time during which transport into the basolateral compartment was undetectable (Caco-2 cells [1]): about 60 min
- reduction of ML in the basolateral chamber (Caco-2 cells [1]): 90%
- decrease in the permeability as measured by Papp (Caco-2 cells [2]): 6.3%
- decrease of Papp values (Caco-2 cells [2]): 6.3%

SMILES: O=[As]O[As]=O (stereo not shown) [As, arsenic oxide (As III)]
- Papp (Caco-2 cells [1]; at 2 h, concentration 67 μM): 4.6 ± 0.3 × 10^–6 cm/s
- decrease in the permeability as measured by Papp (Caco-2 cells [2]): 7.5%
- decrease of Papp values (Caco-2 cells [2]): 7.5%
- decrease of Papp values [4]: 63%

SMILES: O=S(=O)(O)CC(S)CS (stereo not shown) [DMPS, 2,3-dimercapto-1-propanesulfonic acid]
- Properties: water solubility [5]: C3H8O3S3 M.wt; 188.289g/mol Water soluble

SMILES: [CH3][Hg] [CH3Hg]
- decrease in the cellular accumulation (Caco-2 cells [1]): up to 55%

SMILES: [Cl][Hg][Cl] [Hg, mercuric chloride]
- cell retention (Caco-2 cells [1]): 49–69%
- cellular accumulation (Caco-2 cells [1]): 21–51%
- transport to the basal compartment (Caco-2 cells [1]): 3–14%
- transport to the basolateral side (Caco-2 cells [1]): 9–20%
- absorption in vivo [6]: < 15%
- decrease in the permeability as measured by Papp (Caco-2 cells [2]): 8.2%
- decrease of Papp values (Caco-2 cells [2]): 7.9%
